Where “and” joins values, the source holds several entries; their conditions need not be identical. Identical values can stand only once.
What was measured:
[1] = Stability studies of gallium-68 complexes in media (EtOH, human serum, saline, PBS); type: physicochemical
Description: (§1) Gallium-68 stability studies against transmetallation (Fe, Cu, Ca, Mg), transchelation (EDTA, DTPA) as well as in HS, EtOH and saline (0.9% isotone NaCl-solution) were performed. 50 μl of the [^68Ga]Ga-DOTA.SA.FAPi labeling solution with > 95% radiochemical purity were added to 1 mL of the respective media. The measured time points for gallium-68 were 15, 30, 45, 60, 90, 120 min. HS (human male AB plasma, USA origin) was bought from Sigma Aldrich, PBS was purchased from Sigma Aldrich and 0.9% saline from B. Braun Melsungen AG (Melsungen, Germany).

HT-29 xenograft mice [2] = test: Micro-PET/CT imaging in HT-29 tumor-bearing mice; type: in vivo, mouse; settings: PET 60 min p.i.
Description: (§2) In vivo tumor model: HT-29 (human colon adenocarcinoma, ATCC, Rockville, Maryland) cells were routinely cultured in Dulbecco’s Modified Eagle Medium supplemented with 10% heat inactivated foetal bovine serum (FBS), 2 mM glutamine, 1% sodium pyruvate and 1% penicillin/streptomycin (Gibco, Life technologies). After detaching the cells, the number of viable cells was counted with the automated Muse™ Cell Analyzer (Merck Millipore). For the HT-29 subcutaneous model, 10.10^6 viable cells, suspended in 100 μl PBS, were inoculated in the right hind leg of female 6-week-old CD1^−/− Foxn1nu mice (n = 3), obtained from Charles River Laboratories (L’Arbresle, France). The animals were kept under environmentally controlled conditions (12 h light/dark cycle, 20–24 °C and 40–70% relative humidity) with food and water ad libitum. When tumors reached an approximate volume of 400 mm^3, 3 mice underwent μPET imaging. All experimental procedures and protocols were performed in accordance with European Directive 86/609/EEC Welfare and Treatment of Animals and were approved by the local ethical commission (2017–070, University of Antwerp, Belgium).
Micro-PET imaging: Micro-PET scans were carried out using an Inveon small-animal PET/CT scanner (Siemens), after i.v. injection of 4 nmol of [^68Ga]-DOTA.SA.FAPi (8.6 MBq, molar activity of 2.1 GBq/ μmol) into tumor bearing mice (n = 3), under isoflurane anesthesia (5% for induction, 2% for maintenance). Static whole-body PET images were acquired 60 min after injection of the radiotracer. Following each PET acquisition, a whole-body CT scan was acquired to obtain the animal’s anatomical information individually.
For quantitative analysis, PET data were reconstructed using 3-dimensional ordered subset expectation maximization (OSEM3D, 16 subsets and 2 iterations) and 18 maximum a posteriori (MAP) iterations including scatter and attenuation correction (matrix size, 128 × 128 × 159; voxel size, 0.776 × 0.776 × 0.776 mm;). Volumes of interest (VOIs) were manually drawn on the PET/CT images using PMOD (version 3.6; PMOD Technologies) to delineate the tumor, heart and muscle.

[3] = Gallium-68 stability against transmetallation (Fe, Cu, Ca, Mg) and transchelation (EDTA, DTPA); type: physicochemical
Description: as §1

HT-29 xenograft mice [4] = test: Ex vivo biodistribution in HT-29 xenograft mice; parameters: species or system mouse
Description: as §2
Ex vivo biodistribution: Immediately after the CT scans, the animals were sacrificed, the blood, tissues and organs were collected, weighed and the radioactivity was measured using an automatic γ-counter (Wizard^2 2480, PerkinElmer). Values were expressed as percentage of the injected dose per gram (%ID/g).

human FAP = molecular target: T1, human FAP (Homo sapiens, UniProt Q12884); test: FAP inhibition assay (IC50, Z-Gly-Pro-AMC substrate); type: biochemical; settings: for IC50: Z-Gly-Pro-AMC 50 μM, pH 8, 15 min pre-incubation at 37 °C
T1 construct: the human secretion signal was replaced with the HoneyBee mellitin secretion signal; HoneyBee mellitin secretion signal (replaces the native signal-anchor) (N); C-terminal tag of the BaculoDirect C-term kit (C); made in house; host or cells: Sf9 insect cells (baculovirus); purified from the supernatant
T1 sequence (Q12884 26-760 limits assumed): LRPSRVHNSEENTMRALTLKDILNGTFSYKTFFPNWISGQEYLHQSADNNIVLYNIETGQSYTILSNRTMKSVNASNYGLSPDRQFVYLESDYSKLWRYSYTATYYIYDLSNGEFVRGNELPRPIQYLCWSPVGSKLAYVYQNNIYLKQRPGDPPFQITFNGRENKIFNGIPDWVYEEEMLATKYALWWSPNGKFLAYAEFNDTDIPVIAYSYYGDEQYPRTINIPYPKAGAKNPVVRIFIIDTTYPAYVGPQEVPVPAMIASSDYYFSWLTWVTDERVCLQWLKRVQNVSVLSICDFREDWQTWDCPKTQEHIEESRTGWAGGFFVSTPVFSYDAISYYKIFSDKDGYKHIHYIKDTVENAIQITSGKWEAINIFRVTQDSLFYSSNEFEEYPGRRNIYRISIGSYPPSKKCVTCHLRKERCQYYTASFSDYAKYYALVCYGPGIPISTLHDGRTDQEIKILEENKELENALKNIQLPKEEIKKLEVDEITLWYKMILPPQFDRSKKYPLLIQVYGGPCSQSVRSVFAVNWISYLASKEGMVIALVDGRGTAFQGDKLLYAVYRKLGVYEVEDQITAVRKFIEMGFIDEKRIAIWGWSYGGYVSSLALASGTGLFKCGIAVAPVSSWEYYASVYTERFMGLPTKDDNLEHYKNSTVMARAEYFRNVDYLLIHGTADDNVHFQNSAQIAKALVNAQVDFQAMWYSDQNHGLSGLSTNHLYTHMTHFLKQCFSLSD
Excerpt: (§3) Enzymes: A gateway-entry clone for human FAP was purchased from Dharmacon (Accession number DQ891423) and the human secretion signal was replaced with the HoneyBee mellitin secretion signal. For transfection and expression of FAP in Sf9 insect cells, the C-terminal BaculoDirect kit from LifeTechnologies was used. The enzyme was purified from the supernatant of the insect cells using immobilized Ni-chelating chromatography (GE healthcare, Diegem, Belgium), followed by anion-exchange chromatography using a 1 mL HiTrap Q (GE healthcare, Diegem, Belgium). Human recombinant PREP was expressed in BL21(DE3) cells and purified using immobilized Co-chelating chromatography (GE healthcare) followed by anion-exchange chromatography on a 1 ml Mono Q column (GE healthcare).
Eight concentrations of inhibitors were tested. The final DMSO concentration was kept constant during the experiment to exclude any solvent effects. Inhibitors were pre-incubated with the enzyme for 15 min at 37 °C, afterwards the substrate was added and the velocities of AMC release were measured kinetically at λex = 380 nm, λem = 465 nm for at least 10 min at 37 °C. The Infinite 200 (Tecan Group Ltd.) micro-titer plate reader and the Magellan software were used for measurement and data processing respectively.
(§4) The data were fitted using a non-linear fit model in GraFit 7 software, according to the following equation: y=range/1+x/IC50^s where y is the value of the residual enzymatic activity compared to a non-inhibited sample, x is the final inhibitor concentration in the assay, s is the slope factor and the IC50 is the half maximal inhibitory concentration.

Human recombinant PREP = molecular target: T2, Human recombinant PREP (Homo sapiens, UniProt P48147); test: PREP inhibition assay (IC50, N-succinyl-Gly-Pro-AMC substrate); type: biochemical; settings: N-succinyl-Gly-Pro-AMC 250 μM, pH 7.4, 15 min pre-incubation at 37 °C
T2 sequence (P48147 1-710): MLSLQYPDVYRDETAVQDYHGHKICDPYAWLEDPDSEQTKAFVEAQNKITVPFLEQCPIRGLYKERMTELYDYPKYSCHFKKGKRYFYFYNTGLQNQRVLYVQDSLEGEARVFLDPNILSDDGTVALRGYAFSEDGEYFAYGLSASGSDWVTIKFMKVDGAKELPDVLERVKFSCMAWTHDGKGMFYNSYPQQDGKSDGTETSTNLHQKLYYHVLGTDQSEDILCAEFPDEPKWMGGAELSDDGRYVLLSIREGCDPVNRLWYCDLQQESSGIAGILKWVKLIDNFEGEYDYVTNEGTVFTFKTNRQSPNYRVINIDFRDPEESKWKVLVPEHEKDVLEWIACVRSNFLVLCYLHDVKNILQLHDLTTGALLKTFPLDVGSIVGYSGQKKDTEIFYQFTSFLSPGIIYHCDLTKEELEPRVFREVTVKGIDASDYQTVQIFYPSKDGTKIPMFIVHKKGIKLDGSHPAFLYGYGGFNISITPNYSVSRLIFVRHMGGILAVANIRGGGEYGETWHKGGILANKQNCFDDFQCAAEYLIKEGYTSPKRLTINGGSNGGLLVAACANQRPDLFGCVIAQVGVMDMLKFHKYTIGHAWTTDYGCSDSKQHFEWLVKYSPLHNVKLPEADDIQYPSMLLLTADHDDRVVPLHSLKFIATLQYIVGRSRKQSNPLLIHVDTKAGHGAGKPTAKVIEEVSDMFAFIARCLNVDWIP
Excerpt: as §3
Eight concentrations of inhibitors were tested. The final DMSO concentration is kept constant during the experiment to exclude any effects. Inhibitors were pre-incubated with the enzyme for 15 min at 37 °C, afterwards the substrate was added and the velocities of AMC release were measured kinetically at λex = 380 nm, λem = 465 nm for at least 10 min at 37 °C. The Infinite 200 (Tecan Group Ltd.) micro-titer plate reader and the Magellan software were used for measurement and data processing, respectively.
as §4

[5] = HT-29 xenograft mice, 1 h p.i., N=3
[6] = ex vivo biodistribution, 1 h p.i.

CN(CC(=O)[O-])C1(CCCCC(=O)NCCNc2c(NCCCCOc3ccc4nccc(C(=O)NCC(=O)N5CC(F)(F)C[C@H]5C#N)c4c3)c(=O)c2=O)CN(CC(=O)[O-])CCN(CC(=O)[O-])C1.[68Ga+3] [[^68Ga]Ga-DATA^5m.SA.FAPi]
Stability, intact conjugate ([1]; human serum (HS), over 2 h): > 95%
Stability, intact conjugate ([1]; phosphate buffered saline (PBS), over 120 min): > 95%
Stability, intact conjugate ([1]; saline 0.9% (NaCl), over 2 h): > 95%

N#C[C@@H]1CC(F)(F)CN1C(=O)CNC(=O)c1ccnc2ccc(OCCCCNc3c(NCCNC(=O)CN4CCN(CC(=O)[O-])CCN(CC(=O)[O-])CCN(CC(=O)[O-])CC4)c(=O)c3=O)cc12.[68Ga+3] [[^68Ga]Ga-DOTA.SA.FAPi]
SUVmean heart (HT-29 xenograft mice [2]): 0.15 ± 0.01 and 0.15
SUVmean kidneys (HT-29 xenograft mice [2]): 0.27 ± 0.11 and 0.27
SUVmean liver (HT-29 xenograft mice [2]): 0.22 ± 0.08 and 0.22
SUVmean muscle (HT-29 xenograft mice [2]): 0.18 ± 0.07 and 0.18
SUVmean small intestine (HT-29 xenograft mice [2]): 0.37 ± 0.14
SUVmean tumor (HT-29 xenograft mice [2]): 0.75 ± 0.09 and 0.75
Stability against transmetallation ([3]; against Ca, after 2 h): > 95%
Stability against transmetallation ([3]; against Cu, after 2 h): > 95%
Stability against transchelation ([3]; against DTPA, after 2 h): over 98%
Stability against transchelation ([3]; against EDTA, after 2 h): over 98%
Stability against transmetallation ([3]; against Fe, after 90 min): > 95%
Stability against transmetallation ([3]; against Fe, after 2 h): over 92%
Stability against transmetallation ([3]; against Mg, after 2 h): > 95%
Ex vivo biodistribution, Tumor (HT-29 xenograft mice [4]; HT-29 xenograft mice, 1 h (60 min) p.i., N=3): 5.2 %ID/g
Ex vivo biodistribution, Bladder (HT-29 xenograft mice [4]; [5]): 0.96 %ID/g
Ex vivo biodistribution, Blood (HT-29 xenograft mice [4]; [5]): 0.56 %ID/g
Ex vivo biodistribution, Bone (HT-29 xenograft mice [4]; [5]): 3.56 %ID/g
Ex vivo biodistribution, Brain (HT-29 xenograft mice [4]; [5]): 1.27 %ID/g
Ex vivo biodistribution, Fat (HT-29 xenograft mice [4]; [5]): 0.38 %ID/g
Ex vivo biodistribution, Heart (HT-29 xenograft mice [4]; [5]): 0.22 %ID/g
Ex vivo biodistribution, Kidneys (HT-29 xenograft mice [4]; [5]): 1.77 %ID/g
Ex vivo biodistribution, Large Intestine (HT-29 xenograft mice [4]; [5]): 0.21 %ID/g
Ex vivo biodistribution, Liver (HT-29 xenograft mice [4]; [5]): 0.70 %ID/g
Ex vivo biodistribution, Lungs (HT-29 xenograft mice [4]; [5]): 0.33 %ID/g
Ex vivo biodistribution, Muscle (HT-29 xenograft mice [4]; [5]): 0.45 %ID/g
Ex vivo biodistribution, Pancreas (HT-29 xenograft mice [4]; [5]): 0.51 %ID/g
Ex vivo biodistribution, Skin (HT-29 xenograft mice [4]; [5]): 0.04 %ID/g
Ex vivo biodistribution, Small Intestine (HT-29 xenograft mice [4]; [5]): 1.81 %ID/g
Ex vivo biodistribution, Spleen (HT-29 xenograft mice [4]; [5]): 0.23 %ID/g
Ex vivo biodistribution, Stomach (HT-29 xenograft mice [4]; [5]): 0.21 %ID/g
tumor-to-blood ratio (HT-29 xenograft mice [4]; [6]): 9.2 ± 1.1
tumor-to-bone ratio (HT-29 xenograft mice [4]; [6]): 1.5 ± 0.2
tumor-to-large intestine ratio (HT-29 xenograft mice [4]; [6]): 24.9 ± 1.7
tumor-to-muscle ratio (HT-29 xenograft mice [4]; [6]): 11.5 ± 2.2
tumor-to-small intestine ratio (HT-29 xenograft mice [4]; [6]): 2.9 ± 0.8
Stability, intact conjugate ([1]; ethanol (EtOH), over 2 h at 37 °C): over 98%
Stability, intact conjugate ([1]; human serum (HS), over 2 h): over 98%
Stability, intact conjugate ([1]; saline 0.9% (NaCl), over 2 h): over 98%

CN(CC(=O)[O-])C1(CCCCC(=O)NCCNc2c(NCCCCOc3ccc4nccc(C(=O)NCC(=O)N5CC(F)(F)C[C@H]5C#N)c4c3)c(=O)c2=O)CN(CC(=O)[O-])CCN(CC(=O)[O-])C1.[Ga+3] [[^natGa]Ga-DATA^5m.SA.FAPi]
IC50 (human FAP): 0.0007 ± 0.0001 µM
Selectivity index (IC50 PREP / IC50 FAP) (human FAP; ratio of the IC50 values for FAP and PREP): 6714
IC50 (Human recombinant PREP): 4.7 ± 0.3 µM

N#C[C@@H]1CC(F)(F)CN1C(=O)CNC(=O)c1ccnc2ccc(OCCCCNc3c(NCCNC(=O)CN4CCN(CC(=O)[O-])CCN(CC(=O)[O-])CCN(CC(=O)[O-])CC4)c(=O)c3=O)cc12.[Ga+3] [[^natGa]Ga-DOTA.SA.FAPi]
IC50 (human FAP): 0.0014 ± 0.0002 µM
IC50 (Human recombinant PREP): 8.7 ± 0.9 µM
